# Measurements: patent publication US20240158446A1, “CYCLIC COMPOUND HAVING SELECTIVE INHIBITORY ACTION ON KRAS OVER HRAS AND NRAS” (CHUGAI SEIYAKU KABUSHIKI KAISHA, priority 2021, published 2024)
# Key:
# [1] = target: GDP-bound HRAS wild-type protein (Homo sapiens, UniProt P01112); test: Binding to HRAS by surface plasmon resonance (SPR), Single Cycle Kinetics; settings: SPR, GDP-bound HRAS wild-type protein vs GDP-bound KRAS wild-type protein
# [2] = target: GDP-bound KRAS wild-type protein (Homo sapiens, UniProt P01116); test: Binding to KRAS by surface plasmon resonance (SPR), Single Cycle Kinetics; settings: SPR, Single Cycle Kinetics, GDP-bound KRAS wild-type protein; read-out: KRAS KD
# [3] = system: human lung cancer strain NCI-H441;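 also: cell proliferation inhibition after four days measured by CellTiter-Glo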
# [4] = target: GDP-bound NRAS wild-type protein (Homo sapiens, UniProt P01111); test: Binding to NRAS by surface plasmon resonance (SPR), Single Cycle Kinetics; settings: SPR, GDP-bound NRAS wild-type protein vs GDP-bound KRAS wild-type protein
# Sequence of GDP-bound NRAS wild-type protein (P01111 whole entry): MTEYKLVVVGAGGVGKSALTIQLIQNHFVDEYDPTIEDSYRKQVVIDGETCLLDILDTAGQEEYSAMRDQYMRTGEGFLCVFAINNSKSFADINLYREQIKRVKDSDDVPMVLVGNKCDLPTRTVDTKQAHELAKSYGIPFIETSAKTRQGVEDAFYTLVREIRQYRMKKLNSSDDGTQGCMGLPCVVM
# Sequence of GDP-bound HRAS wild-type protein (P01112 whole entry): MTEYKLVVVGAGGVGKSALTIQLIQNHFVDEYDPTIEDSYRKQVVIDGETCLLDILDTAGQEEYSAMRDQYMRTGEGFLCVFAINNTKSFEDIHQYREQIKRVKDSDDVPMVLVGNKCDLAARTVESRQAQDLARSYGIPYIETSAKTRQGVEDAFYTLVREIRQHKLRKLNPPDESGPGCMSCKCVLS
# Sequence of GDP-bound KRAS wild-type protein (P01116 whole entry): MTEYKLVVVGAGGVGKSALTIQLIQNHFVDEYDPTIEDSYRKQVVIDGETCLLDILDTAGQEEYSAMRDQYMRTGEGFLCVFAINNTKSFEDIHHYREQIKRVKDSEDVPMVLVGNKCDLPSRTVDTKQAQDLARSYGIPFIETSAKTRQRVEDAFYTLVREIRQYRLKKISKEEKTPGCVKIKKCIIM
Kd [2],IC50 [3],Compound,HRAS/KRAS (ratio of KD value for HRAS to KD value for KRAS) [1],NRAS/KRAS (ratio of KD value for NRAS to KD value for KRAS) [4]
1.1 nM,172 nM,CCOC[C@H]1C(=O)N[C@@H]([C@@H](C)CC)C(=O)N2CCC[C@H]2C(=O)N(C)[C@H]2C/C=C\CCN(C2=O)[C@@H](CC2CCCCC2)C(=O)N(C)CC(=O)N[C@@H](CCc2ccc(C(F)(F)F)c(OC)c2)C(=O)N2C[C@@H](C)C[C@H]2C(=O)N(C)C2(CCC2)C(=O)N(C)[C@@H](C2CCCC2)C(=O)N(C)[C@H](C(=O)N(C)C)CC(=O)N1C [PP2375],B (a compound having 3 or more and less than 10 is denoted as B),A (a compound having 10 or more and less than 20 is denoted as A)
0.28 nM,4.8 nM,CCC[C@H]1C(=O)N[C@@H]([C@@H](C)CC)C(=O)N(C)CC(=O)N(C)[C@H]2C/C=C\CCN(C2=O)[C@@H](CC2CCC(F)(F)CC2)C(=O)N(C)CC(=O)N[C@@H](CCc2ccc(C(F)(F)F)c(OC)c2)C(=O)N2C[C@@H](C)C[C@H]2C(=O)N(C)C2(CCC2)C(=O)N(C)[C@@H](C2CCCC2)C(=O)N(C)[C@H](C(=O)N(C)C)CC(=O)N1C [PP2376],A (a compound having 10 or more and less than 20 is denoted as A),A (a compound having 10 or more and less than 20 is denoted as A)
0.32 nM,5.7 nM,CCCOC[C@H]1C(=O)N[C@@H]([C@@H](C)CC)C(=O)N(C)CC(=O)N(C)[C@H]2C/C=C\CCN(C2=O)[C@@H](CC2CCC(F)(F)CC2)C(=O)N(C)CC(=O)N[C@@H](CCc2ccc(C(F)(F)F)c(OC)c2)C(=O)N2C[C@@H](C)C[C@H]2C(=O)N(C)C2(CCC2)C(=O)N(C)[C@@H](C2CCCC2)C(=O)N(C)[C@H](C(=O)N(C)C)CC(=O)N1C [PP2377],A (a compound having 10 or more and less than 20 is denoted as A),A (a compound having 10 or more and less than 20 is denoted as A)
0.88 nM,48.3 nM,CCC[C@H]1C(=O)N[C@@H]([C@@H](C)CC)C(=O)N(C2CC2)CC(=O)N(C)[C@H]2C/C=C\CCN(C2=O)[C@@H](CC2CCC(F)(F)CC2)C(=O)N(C)CC(=O)N[C@@H](CCc2ccc(C(F)(F)F)c(OC)c2)C(=O)N2C[C@@H](C)C[C@H]2C(=O)N(C)C2(CCC2)C(=O)N(C)[C@@H](C2CCCC2)C(=O)N(C)[C@H](C(=O)N(C)C)CC(=O)N1C [PP2378],A (a compound having 10 or more and less than 20 is denoted as A),B (a compound having 3 or more and less than 10 is denoted as B)
0.76 nM,2.2 nM,CCCOC[C@H]1C(=O)N[C@@H]([C@@H](C)CC)C(=O)N(C2CC2)CC(=O)N(C)[C@H]2C/C=C\CCN(C2=O)[C@@H](CC2CCC(F)(F)CC2)C(=O)N(C)CC(=O)N[C@@H](CCc2ccc(C(F)(F)F)c(OC)c2)C(=O)N2C[C@@H](C)C[C@H]2C(=O)N(C)C2(CCC2)C(=O)N(C)[C@@H](C2CCCC2)C(=O)N(C)[C@H](C(=O)N(C)C)CC(=O)N1C [PP2379],A (a compound having 10 or more and less than 20 is denoted as A),A (a compound having 10 or more and less than 20 is denoted as A)
0.85 nM,2.1 nM,CCC[C@H]1C(=O)N[C@@H]([C@@H](C)CC)C(=O)N2CCC[C@H]2C(=O)N(C)[C@H]2C/C=C\CCN(C2=O)[C@@H](CC2CCC(F)(F)CC2)C(=O)N(C)CC(=O)N[C@@H](CCc2ccc(C(F)(F)F)c(OC)c2)C(=O)N2C[C@@H](C)C[C@H]2C(=O)N(C)C2(CCC2)C(=O)N(C)[C@@H](C2CCCC2)C(=O)N(C)[C@H](C(=O)N(C)C)CC(=O)N1C [PP2380],A (a compound having 10 or more and less than 20 is denoted as A),A (a compound having 10 or more and less than 20 is denoted as A)
0.93 nM,3.2 nM,CCCOC[C@H]1C(=O)N[C@@H]([C@@H](C)CC)C(=O)N2CCC[C@H]2C(=O)N(C)[C@H]2C/C=C\CCN(C2=O)[C@@H](CC2CCC(F)(F)CC2)C(=O)N(C)CC(=O)N[C@@H](CCc2ccc(C(F)(F)F)c(OC)c2)C(=O)N2C[C@@H](C)C[C@H]2C(=O)N(C)C2(CCC2)C(=O)N(C)[C@@H](C2CCCC2)C(=O)N(C)[C@H](C(=O)N(C)C)CC(=O)N1C [PP2381],A (a compound having 10 or more and less than 20 is denoted as A),A (a compound having 10 or more and less than 20 is denoted as A)
0.12 nM,4.6 nM,CCC[C@H]1C(=O)N[C@@H]([C@@H](C)CC)C(=O)N(C)CC(=O)N(C)[C@H]2C/C=C\CCN(C2=O)[C@@H](Cc2ccc(C(F)(F)F)cc2)C(=O)N(C)CC(=O)N[C@@H](CCc2ccc(C(F)(F)F)c(OC)c2)C(=O)N2C[C@H](OCC)C[C@H]2C(=O)N(C)C2(CCC2)C(=O)N(C)[C@@H](C(CC)CC)C(=O)N(C)[C@H](C(=O)N(C)C)CC(=O)N1C [PP2382],A (a compound having 10 or more and less than 20 is denoted as A),A (a compound having 10 or more and less than 20 is denoted as A)
0.12 nM,5.2 nM,CCOC[C@H]1C(=O)N[C@@H]([C@@H](C)CC)C(=O)N(C)CC(=O)N(C)[C@H]2C/C=C\CCN(C2=O)[C@@H](Cc2ccc(C(F)(F)F)cc2)C(=O)N(C)CC(=O)N[C@@H](CCc2ccc(C(F)(F)F)c(OC)c2)C(=O)N2C[C@H](OCC)C[C@H]2C(=O)N(C)C2(CCC2)C(=O)N(C)[C@@H](C(CC)CC)C(=O)N(C)[C@H](C(=O)N(C)C)CC(=O)N1C [PP2383],A (a compound having 10 or more and less than 20 is denoted as A),A (a compound having 10 or more and less than 20 is denoted as A)
0.12 nM,7.8 nM,CC[C@H](C)[C@@H]1NC(=O)[C@H](COC)N(C)C(=O)C[C@@H](C(=O)N(C)C)N(C)C(=O)[C@H](C2CCCC2)N(C)C(=O)C2(CC(C)(C)C2)NC(=O)[C@@H]2C[C@H](C)CN2C(=O)[C@H](CCc2ccc(C(F)(F)F)c(OC)c2)NC(=O)CN(C)C(=O)[C@H](Cc2ccc(C)cc2)N2CC/C=C\C[C@@H](C2=O)N(C)C(=O)CN(C)C1=O [PP2385],B (a compound having 3 or more and less than 10 is denoted as B),A (a compound having 10 or more and less than 20 is denoted as A)
1.2 nM,28.1 nM,CC[C@H](C)[C@@H]1NC(=O)[C@H](COC)N(C)C(=O)C[C@@H](C(=O)N(C)C)N(C)C(=O)[C@H](C2CCCC2)N(C)C(=O)C2(CC(C)(C)C2)NC(=O)[C@@H]2C[C@H](C)CN2C(=O)[C@H](CCc2ccc(C(F)(F)F)c(OC)c2)NC(=O)CN(C)C(=O)[C@H](Cc2ccc(C)cc2)N2CC/C=C\C[C@@H](C2=O)N(C)C(=O)[C@@H]2C[C@H](C)CN2C1=O [PP2386],B (a compound having 3 or more and less than 10 is denoted as B),A (a compound having 10 or more and less than 20 is denoted as A)
0.33 nM,22.9 nM,CCC[C@H]1C(=O)N[C@@H]([C@@H](C)CC)C(=O)N2C[C@@H](OC)C[C@H]2C(=O)N(C)[C@H]2C/C=C\CCN(C2=O)[C@@H](Cc2ccc(C)cc2)C(=O)N(C)CC(=O)N[C@@H](CCc2ccc(C(F)(F)F)c(OC)c2)C(=O)N2C[C@@H](C)C[C@H]2C(=O)NC2(CC(C)(C)C2)C(=O)N(C)[C@@H](C2CCCC2)C(=O)N(C)[C@H](C(=O)N(C)C)CC(=O)N1C [PP2388],B (a compound having 3 or more and less than 10 is denoted as B),A (a compound having 10 or more and less than 20 is denoted as A)
0.079 nM,21.3 nM,CCO[C@@H]1C[C@H]2C(=O)NC3(CC(C)(C)C3)C(=O)N(C)[C@@H](C3CCCC3)C(=O)N(C)[C@H](C(=O)N(C)C)CC(=O)N(C)[C@@H](COC)C(=O)N[C@@H]([C@@H](C)CC)C(=O)N(C)CC(=O)N(C)[C@H]3C/C=C\CCN(C3=O)[C@@H](Cc3ccc(C)cc3)C(=O)N(C)CC(=O)N[C@@H](CCc3ccc(C(F)(F)F)c(Cl)c3)C(=O)N2C1 [PP2389],B (a compound having 3 or more and less than 10 is denoted as B),A (a compound having 10 or more and less than 20 is denoted as A)
0.28 nM,96.7 nM,CC[C@H](C)[C@@H]1NC(=O)[C@H](COC)N(C)C(=O)C[C@@H](C(=O)N(C)C)N(C)C(=O)[C@H](C2CCCC2)N(C)C(=O)C2(CC(C)(C)C2)NC(=O)[C@@H]2C[C@H](C)CN2C(=O)[C@H](CCc2ccc(C(F)(F)F)c(OC)c2)NC(=O)CN(C)C(=O)[C@H](Cc2ccc(C)cc2)N2CC/C=C\C[C@@H](C2=O)N(C)C(=O)[C@@H]2C[C@H](OC)CN2C1=O [PP2390],B (a compound having 3 or more and less than 10 is denoted as B),A (a compound having 10 or more and less than 20 is denoted as A)
0.043 nM,8.9 nM,CCO[C@@H]1C[C@H]2C(=O)NC3(CC(C)(C)C3)C(=O)N(C)[C@@H](C3CCCC3)C(=O)N(C)[C@H](C(=O)N(C)C)CC(=O)N(C)[C@@H](COC)C(=O)N[C@@H]([C@@H](C)CC)C(=O)N(C)CC(=O)N(C)[C@H]3C/C=C\CCN(C3=O)[C@@H](Cc3ccc(C)cc3)C(=O)N(C)CC(=O)N[C@@H](CCc3cc(F)c(C(F)(F)F)c(F)c3)C(=O)N2C1 [PP2391],A (a compound having 10 or more and less than 20 is denoted as A),A (a compound having 10 or more and less than 20 is denoted as A)
